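Step 1: Grow cells in 96-well plates. Step 2: Expose to compound for 48 hours at 5 concentrations. Step 3: Interpolate endpoints linearly; if unreached, use highest concentration. The concentration for full growth arrest is given as TGI.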
Assays:
Experiment in all cases: growth of human tumour cells (NCI), 48 h
SNB-19 CNS = test system: SNB-19 CNS
IGROV1 ovarian = test system: IGROV1 ovarian
OVCAR-4 ovarian = test system: OVCAR-4 ovarian
HOP-62 NSCLC = test system: HOP-62 NSCLC
K-562 leukemia = test system: K-562 leukemia
MDA-MB-435 = test system: MDA-MB-435
MCF7 breast = test system: MCF7 breast
SF-295 CNS = test system: SF-295 CNS
HT29 colon = test system: HT29 colon
DU-145 prostate = test system: DU-145 prostate
TK-10 renal = test system: TK-10 renal
RXF 393 renal = test system: RXF 393 renal
NCI-H226 lung = test system: NCI-H226 lung
SK-MEL-28 melanoma = test system: SK-MEL-28 melanoma
NCI/ADR-RES ovarian = test system: NCI/ADR-RES ovarian
OVCAR-5 ovarian = test system: OVCAR-5 ovarian
CAKI-1 renal = test system: CAKI-1 renal
CCRF-CEM leukemia = test system: CCRF-CEM leukemia
SK-MEL-2 melanoma = test system: SK-MEL-2 melanoma
PC-3 prostate = test system: PC-3 prostate
ACHN renal = test system: ACHN renal
786-0 renal = test system: 786-0 renal
HS 578T breast = test system: HS 578T breast
M14 melanoma = test system: M14 melanoma
KM12 colon = test system: KM12 colon
LOX IMVI melanoma = test system: LOX IMVI melanoma
RPMI-8226 leukemia = test system: RPMI-8226 leukemia
EKVX NSCLC = test system: EKVX NSCLC
SW-620 colon = test system: SW-620 colon
SNB-75 CNS = test system: SNB-75 CNS
UACC-257 melanoma = test system: UACC-257 melanoma
SK-OV-3 ovarian = test system: SK-OV-3 ovarian
HOP-92 NSCLC = test system: HOP-92 NSCLC
A498 renal = test system: A498 renal
MOLT-4 leukemia = test system: MOLT-4 leukemia
HCT-15 colon = test system: HCT-15 colon
SK-MEL-5 melanoma = test system: SK-MEL-5 melanoma
SF-268 CNS = test system: SF-268 CNS
OVCAR-8 ovarian = test system: OVCAR-8 ovarian
NCI-H460 lung = test system: NCI-H460 lung
MALME-3M melanoma = test system: MALME-3M melanoma
HCC-2998 colon = test system: HCC-2998 colon
T-47D breast = test system: T-47D breast
COLO 205 colon = test system: COLO 205 colon
UACC-62 melanoma = test system: UACC-62 melanoma
OVCAR-3 ovarian = test system: OVCAR-3 ovarian
UO-31 renal = test system: UO-31 renal
SR leukemia = test system: SR leukemia
NCI-H522 lung = test system: NCI-H522 lung
A549 NSCLC = test system: A549 NSCLC
NCI-H23 lung = test system: NCI-H23 lung
U251 CNS = test system: U251 CNS
MDA-N = test system: MDA-N
HL-60(TB) leukemia = test system: HL-60(TB) leukemia
MDA-MB-231 breast = test system: MDA-MB-231 breast
SF-539 CNS = test system: SF-539 CNS
HCT-116 colon = test system: HCT-116 colon
SN12C renal = test system: SN12C renal

Structure (SMILES): COC/C=C\[C@]1(O)CCCC[C@@H]1CC(OC)OC
- TGI (SNB-19 CNS): > 100 µM
- TGI (IGROV1 ovarian): > 100 µM
- TGI (OVCAR-4 ovarian): > 100 µM
- TGI (HOP-62 NSCLC): > 100 µM
- TGI (K-562 leukemia): > 100 µM
- TGI (MDA-MB-435): > 100 µM
- TGI (MCF7 breast): > 100 µM
- TGI (SF-295 CNS): > 100 µM
- TGI (HT29 colon): > 100 µM
- TGI (DU-145 prostate): > 100 µM
- TGI (TK-10 renal): > 100 µM
- TGI (RXF 393 renal): > 100 µM
- TGI (NCI-H226 lung): > 100 µM
- TGI (SK-MEL-28 melanoma): > 100 µM
- TGI (NCI/ADR-RES ovarian): > 100 µM
- TGI (OVCAR-5 ovarian): > 100 µM
- TGI (CAKI-1 renal): > 100 µM
- TGI (CCRF-CEM leukemia): > 100 µM
- TGI (SK-MEL-2 melanoma): > 100 µM
- TGI (PC-3 prostate): > 100 µM
- TGI (ACHN renal): > 100 µM
- TGI (786-0 renal): > 100 µM
- TGI (HS 578T breast): > 100 µM
- TGI (M14 melanoma): > 100 µM
- TGI (KM12 colon): > 100 µM
- TGI (LOX IMVI melanoma): > 100 µM
- TGI (RPMI-8226 leukemia): > 100 µM
- TGI (EKVX NSCLC): > 100 µM
- TGI (SW-620 colon): > 100 µM
- TGI (SNB-75 CNS): > 100 µM
- TGI (UACC-257 melanoma): > 100 µM
- TGI (SK-OV-3 ovarian): > 100 µM
- TGI (HOP-92 NSCLC): > 100 µM
- TGI (A498 renal): > 100 µM
- TGI (MOLT-4 leukemia): 91.2 µM
- TGI (HCT-15 colon): > 100 µM
- TGI (SK-MEL-5 melanoma): > 100 µM
- TGI (SF-268 CNS): > 100 µM
- TGI (OVCAR-8 ovarian): > 100 µM
- TGI (NCI-H460 lung): > 100 µM
- TGI (MALME-3M melanoma): > 100 µM
- TGI (HCC-2998 colon): > 100 µM
- TGI (T-47D breast): > 100 µM
- TGI (COLO 205 colon): > 100 µM
- TGI (UACC-62 melanoma): > 100 µM
- TGI (OVCAR-3 ovarian): > 100 µM
- TGI (UO-31 renal): > 100 µM
- TGI (SR leukemia): > 100 µM
- TGI (NCI-H522 lung): > 100 µM
- TGI (A549 NSCLC): > 100 µM
- TGI (NCI-H23 lung): > 100 µM
- TGI (U251 CNS): > 100 µM
- TGI (MDA-N): > 100 µM
- TGI (HL-60(TB) leukemia): 81.8 µM
- TGI (MDA-MB-231 breast): > 100 µM
- TGI (SF-539 CNS): > 100 µM

Structure (SMILES): O=C1O/C(=C(/Br)c2ccc(Cl)c(Cl)c2)c2ccccc21
- TGI (SNB-19 CNS): > 10 µM
- TGI (IGROV1 ovarian): > 10 µM
- TGI (OVCAR-4 ovarian): > 10 µM
- TGI (HOP-62 NSCLC): > 10 µM
- TGI (HCT-116 colon): > 10 µM
- TGI (K-562 leukemia): > 10 µM
- TGI (MDA-MB-435): > 10 µM
- TGI (MCF7 breast): > 10 µM
- TGI (SF-295 CNS): > 10 µM
- TGI (HT29 colon): > 10 µM
- TGI (DU-145 prostate): > 10 µM
- TGI (TK-10 renal): > 10 µM
- TGI (RXF 393 renal): > 10 µM
- TGI (NCI-H226 lung): > 10 µM
- TGI (SK-MEL-28 melanoma): > 10 µM
- TGI (NCI/ADR-RES ovarian): > 10 µM
- TGI (OVCAR-5 ovarian): > 10 µM
- TGI (CAKI-1 renal): > 10 µM
- TGI (CCRF-CEM leukemia): > 10 µM
- TGI (SK-MEL-2 melanoma): > 10 µM
- TGI (PC-3 prostate): > 10 µM
- TGI (ACHN renal): > 10 µM
- TGI (786-0 renal): > 10 µM
- TGI (HS 578T breast): > 10 µM
- TGI (M14 melanoma): > 10 µM
- TGI (KM12 colon): > 10 µM
- TGI (LOX IMVI melanoma): > 10 µM
- TGI (RPMI-8226 leukemia): > 10 µM
- TGI (EKVX NSCLC): > 10 µM
- TGI (SW-620 colon): > 10 µM
- TGI (SNB-75 CNS): > 10 µM
- TGI (UACC-257 melanoma): > 10 µM
- TGI (SK-OV-3 ovarian): > 10 µM
- TGI (HOP-92 NSCLC): > 10 µM
- TGI (MOLT-4 leukemia): > 10 µM
- TGI (HCT-15 colon): > 10 µM
- TGI (SK-MEL-5 melanoma): > 10 µM
- TGI (SF-268 CNS): > 10 µM
- TGI (OVCAR-8 ovarian): > 10 µM
- TGI (SN12C renal): > 10 µM
- TGI (NCI-H460 lung): > 10 µM
- TGI (HCC-2998 colon): > 10 µM
- TGI (T-47D breast): > 10 µM
- TGI (COLO 205 colon): > 10 µM
- TGI (UACC-62 melanoma): > 10 µM
- TGI (OVCAR-3 ovarian): > 10 µM
- TGI (UO-31 renal): > 10 µM
- TGI (SR leukemia): > 10 µM
- TGI (NCI-H522 lung): > 10 µM
- TGI (A549 NSCLC): > 10 µM
- TGI (NCI-H23 lung): > 10 µM
- TGI (U251 CNS): > 10 µM
- TGI (MDA-N): > 10 µM
- TGI (HL-60(TB) leukemia): > 10 µM
- TGI (MDA-MB-231 breast): > 10 µM
- TGI (SF-539 CNS): > 10 µM
